# Data reported in publication PMC7867265, “Phosphofructokinases A and B from Mycobacterium tuberculosis Display Different Catalytic Properties and Allosteric Regulation” (International Journal of Molecular Sciences, 2021).
# Legend:
# Pfk A [1] = molecular target: T1, Pfk A (Mycobacterium tuberculosis, UniProt P9WID7)
# T1 construct: gene pfkA
# Pfk A [2] = molecular target: T1, Pfk A; remark: listed apart in the source
# Pfk B = molecular target: T2, Pfk B (Mycobacterium tuberculosis, UniProt P9WID3)
# T2 construct: gene pfkB
# Pfk A [3] = molecular target: T1, Pfk A; remark: listed apart in the source
# Pfk A [4] = molecular target: T1, Pfk A; remark: listed apart in the source
# T1 sequence (P9WID7 whole entry): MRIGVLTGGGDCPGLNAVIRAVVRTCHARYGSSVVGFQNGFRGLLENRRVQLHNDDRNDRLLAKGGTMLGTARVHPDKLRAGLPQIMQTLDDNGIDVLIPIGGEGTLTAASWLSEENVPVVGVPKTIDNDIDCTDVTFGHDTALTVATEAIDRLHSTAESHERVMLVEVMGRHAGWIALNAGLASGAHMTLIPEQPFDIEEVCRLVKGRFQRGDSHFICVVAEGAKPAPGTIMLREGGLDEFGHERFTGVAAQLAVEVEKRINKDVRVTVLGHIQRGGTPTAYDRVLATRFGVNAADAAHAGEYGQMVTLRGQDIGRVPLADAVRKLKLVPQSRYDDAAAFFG
# T2 sequence (P9WID3 whole entry): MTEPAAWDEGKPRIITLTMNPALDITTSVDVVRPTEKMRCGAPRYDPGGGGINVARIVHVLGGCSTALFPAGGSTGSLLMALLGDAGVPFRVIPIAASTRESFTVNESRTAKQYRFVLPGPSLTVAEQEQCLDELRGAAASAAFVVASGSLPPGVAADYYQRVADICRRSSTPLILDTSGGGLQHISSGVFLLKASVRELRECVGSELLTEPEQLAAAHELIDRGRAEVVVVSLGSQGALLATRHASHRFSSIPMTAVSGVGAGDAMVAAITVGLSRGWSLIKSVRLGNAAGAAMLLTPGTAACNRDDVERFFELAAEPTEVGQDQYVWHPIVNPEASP
smiles,measurement,setting,value
Nc1ncnc2c1ncn2[C@@H]1O[C@H](COP(=O)(O)OP(=O)(O)OP(=O)(O)O)[C@@H](O)[C@H]1O [ATP],K1/2 (Km),Pfk A [1],1.5 ± 0.3 mM
O=P(O)(O)OC[C@H]1OC(O)(CO)[C@@H](O)[C@@H]1O (some centres unmarked) [F6P],K1/2 (Km),Pfk A [1],13.2 ± 2.0 mM
O=P(O)(O)OC[C@H]1OC(O)(COP(=O)(O)O)[C@@H](O)[C@@H]1O (some centres unmarked) [F16bP],"feedback inhibition, modified coupled assay II",Pfk A [2],Pfk A was efficiently inhibited by F16bP within the low micromolar concentration range
O=P(O)(O)OC[C@H]1O[C@@](CO)(OP(=O)(O)O)[C@@H](O)[C@@H]1O [F26bP],% activation at 100 μM,Pfk B,20%
same,% activation at 100 μM,Pfk A [3],10%
Nc1nc2c(ncn2[C@@H]2O[C@H](COP(=O)(O)OP(=O)(O)O)[C@@H](O)[C@H]2O)c(=O)[nH]1 [GDP],"inhibition, coupled assay I",Pfk A [4],Pfk A was found to be efficiently inhibited also by GDP within the millimolar concentration range
C=C(OP(=O)(O)O)C(=O)O [PEP],"inhibition, coupled assay I",Pfk A [4],efficient Pfk A inhibition can be achieved by a low micromolar concentration of this metabolite
O=C(O)CC(O)(CC(=O)O)C(=O)O [citrate],"inhibition, coupled assay I",Pfk A [4],"Citrate also inhibited Pfk A, however, in millimolar concentrations"
